Key:
sigma receptors [1] = biological target: T1, sigma receptors (Rattus norvegicus, UniProt Q9R0C9); experiment: biochemical; conditions: binding in vitro, ligand (+)-3-PPP, rat cerebral membranes
T1 construct: in vitro on rat cerebral membranes; from tissue; host or cells: rat cerebral membranes
From the text: (§1) These tests have been carried out in vitro on rat cerebral membranes using as ligands either ^3 H-(+)-3 PPP according to Largent et al., J. Phamacol. […] Acad. Sci. USA, 1986, 83, 8784-8788 and in vivo in mice with the ligand ^3 H-3 PPP according to B. Kenneth Koe et al., European J. Pharmacol., 1989, 161, 263-266.

sigma receptors [2] = experiment: Sigma receptor activity/selectivity (test not specified); format: binding; conditions: from Table I, versus haloperidol
dopaminergic receptor(s) = biological target: T2, dopaminergic receptor(s) (Rattus norvegicus, UniProt P61169); experiment: biochemical; conditions: binding in vitro, ligand spiroperidol
T2 construct: from tissue; host or cells: rat brain, probably striatum (inferred from the cited methods)

[3] = tested on: hyperactivity induced by d-amphetamine; experiment: Antagonism of hyperactivity induced in mice by d-amphetamine; format: in vivo; conditions: predictive test for antipsychotic activity
TCP = experiment: Binding in vitro, TCP (thienylcyclohexylpiperidine); conditions: ligand TCP
sigma receptors [4] = experiment: Binding in vitro on rat cerebral membranes, ligand 3H-DTG
From the text: as §1

sigma receptors [5] = experiment: In vivo displacement of 3H-(+)-3-PPP at the cerebral level in mice
From the text: as §1

T1 sequence (Q9R0C9 whole entry): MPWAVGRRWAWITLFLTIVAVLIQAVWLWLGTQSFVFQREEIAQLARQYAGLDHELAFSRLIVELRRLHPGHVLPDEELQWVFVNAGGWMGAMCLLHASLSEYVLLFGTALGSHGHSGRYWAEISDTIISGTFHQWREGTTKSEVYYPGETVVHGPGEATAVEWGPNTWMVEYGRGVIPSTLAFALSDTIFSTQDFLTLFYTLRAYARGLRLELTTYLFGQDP
T2 sequence (P61169 whole entry): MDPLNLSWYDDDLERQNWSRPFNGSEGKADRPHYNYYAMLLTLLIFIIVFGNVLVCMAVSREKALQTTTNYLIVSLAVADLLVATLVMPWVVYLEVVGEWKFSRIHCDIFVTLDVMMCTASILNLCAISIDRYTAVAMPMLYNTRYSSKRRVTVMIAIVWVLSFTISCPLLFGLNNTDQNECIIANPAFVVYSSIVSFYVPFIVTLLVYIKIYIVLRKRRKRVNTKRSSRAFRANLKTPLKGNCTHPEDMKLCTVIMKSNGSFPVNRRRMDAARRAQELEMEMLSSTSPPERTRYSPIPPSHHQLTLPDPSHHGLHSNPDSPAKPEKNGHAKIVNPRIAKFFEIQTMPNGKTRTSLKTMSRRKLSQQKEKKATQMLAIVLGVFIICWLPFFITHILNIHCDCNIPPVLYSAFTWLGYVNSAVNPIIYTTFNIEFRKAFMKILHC

IC50 (sigma receptors [1]): 8 nM
IC50 (dopaminergic receptor(s)): 10000 nM
IC50 (TCP): > 10000 nM
IC50 (sigma receptors [4]): 10 nM
Compound: Cl.Clc1cc(/C=C\CN2CCCCCC2)ccc1C1CCCCC1 [Example 2, cis-3-(Hexahydroazepin-1-yl)-1-(3-chloro-4-cyclohexylphenyl)-1-propene hydrochloride]
sigma impact compared with haloperidol (sigma receptors [2]): superior and/or more selective sigma impact than that of haloperidol
hyperactivity induced by d-amphetamine [3]: active
displacement of the ligand (+)-3PPP, at the cerebral level (sigma receptors [5]): active

— US5296596A, “Hexahydroazepine derivatives, a process for their preparation” (ELF SANOFI, priority 1990, dated 1994)
